According to patent US9701662B2, “Herbicidal compounds” (Syngenta Participations AG, priority 2014, dated 2017):

Experiments:
Assay type in all cases: in vivo
[1] = system: Amaranthus retoflexus (AMARE); experiment: Post-emergence glasshouse herbicide test; settings: post-emergence (sprayed after 8 days cultivation), 1000 g/h, evaluated after 13 days, five point scale
Method: (§1) Seeds of a variety of test species are sown in standard soil in pots (Lolium perenne (LOLPE), Solanum nigrum (SOLNI), Amaranthus retoflexus (AMARE), Setaria faberi (SETFA), Echinochloa crus-galli (ECHCG), Ipomoea hederacea (IPOHE)). After cultivation for one day (pre-emergence) or after 8 days cultivation (post-emergence) under controlled conditions in a glasshouse (at 24/16° C., day/night; 14 hours light; 65% humidity), the plants are sprayed with an aqueous spray solution derived from the formulation of the technical active ingredient in acetone/water (50:50) solution containing 0.5% Tween 20 (polyoxyethelyene sorbitan monolaurate, CAS RN 9005-64-5). Compounds are applied at 1000 g/h. The test plants are then grown in a glasshouse under controlled conditions in a glasshouse (at 24/16° C., day/night; 14 hours light; 65% humidity) and watered twice daily. After 13 days for pre and post-emergence, the test is evaluated for the percentage damage caused to the plant. The biological activities are shown in the following table on a five point scale (5=80-100%; 4=60-79%; 3=40-59%; 2=20-39%; 1=0-19%).

[2] = system: Echinochloa crus-galli (ECHCG); experiment: Post-emergence glasshouse herbicide test; settings: post-emergence (sprayed after 8 days cultivation), 1000 g/h, evaluated after 13 days, five point scale
Method: as §1

[3] = system: Ipomoea hederacea (IPOHE); experiment: Post-emergence glasshouse herbicide test; settings: post-emergence (sprayed after 8 days cultivation), 1000 g/h, evaluated after 13 days, five point scale
Method: as §1

[4] = system: Lolium perenne (LOLPE); experiment: Post-emergence glasshouse herbicide test; settings: post-emergence (sprayed after 8 days cultivation), 1000 g/h, evaluated after 13 days, five point scale
Method: as §1

[5] = system: Setaria faberi (SETFA); experiment: Post-emergence glasshouse herbicide test; settings: post-emergence (sprayed after 8 days cultivation), 1000 g/h, evaluated after 13 days, five point scale
Method: as §1

[6] = system: Solanum nigrum (SOLNI); experiment: Post-emergence glasshouse herbicide test; settings: post-emergence (sprayed after 8 days cultivation), 1000 g/h, evaluated after 13 days, five point scale
Method: as §1

[7] = system: Amaranthus retoflexus (AMARE); experiment: Pre-emergence glasshouse herbicide test; settings: pre-emergence (sprayed after one day cultivation), 1000 g/h, evaluated after 13 days, five point scale
Method: as §1

[8] = system: Echinochloa crus-galli (ECHCG); experiment: Pre-emergence glasshouse herbicide test; settings: pre-emergence (sprayed after one day cultivation), 1000 g/h, evaluated after 13 days, five point scale
Method: as §1

[9] = system: Ipomoea hederacea (IPOHE); experiment: Pre-emergence glasshouse herbicide test; settings: pre-emergence (sprayed after one day cultivation), 1000 g/h, evaluated after 13 days, five point scale
Method: as §1

[10] = system: Lolium perenne (LOLPE); experiment: Pre-emergence glasshouse herbicide test; settings: pre-emergence (sprayed after one day cultivation), 1000 g/h, evaluated after 13 days, five point scale
Method: as §1

[11] = system: Setaria faberi (SETFA); experiment: Pre-emergence glasshouse herbicide test; settings: pre-emergence (sprayed after one day cultivation), 1000 g/h, evaluated after 13 days, five point scale
Method: as §1

[12] = system: Solanum nigrum (SOLNI); experiment: Pre-emergence glasshouse herbicide test; settings: pre-emergence (sprayed after one day cultivation), 1000 g/h, evaluated after 13 days, five point scale
Method: as §1

| SMILES | percentage damage caused to the plant, AMARE, POST Application [1] | percentage damage caused to the plant, ECHCG, POST Application [2] | percentage damage caused to the plant, IPOHE, POST Application [3] | percentage damage caused to the plant, LOLPE, POST Application [4] | percentage damage caused to the plant, SETFA, POST Application [5] | percentage damage caused to the plant, SOLNI, POST Application [6] | percentage damage caused to the plant, AMARE, PRE Application [7] | percentage damage caused to the plant, ECHCG, PRE Application [8] | percentage damage caused to the plant, IPOHE, PRE Application [9] | percentage damage caused to the plant, LOLPE, PRE Application [10] | percentage damage caused to the plant, SETFA, PRE Application [11] | percentage damage caused to the plant, SOLNI, PRE Application [12] |
| --- | --- | --- | --- | --- | --- | --- | --- | --- | --- | --- | --- | --- |
| Cc1c(Cl)c(C(=O)Nc2nnnn2C)nn(C)c1=O [Compound 1.007] | 5 (5=80-100%) | 5 (5=80-100%) | 5 (5=80-100%) | 5 (5=80-100%) | 5 (5=80-100%) | 5 (5=80-100%) | 5 (5=80-100%) | 5 (5=80-100%) | 5 (5=80-100%) | 5 (5=80-100%) | 5 (5=80-100%) | 5 (5=80-100%) |
| CCCCNc1c(C(=O)Nc2nnnn2C)nn(C)c(=O)c1C [Compound 1.008] | 5 (5=80-100%) | 1 (1=0-19%) | 2 (2=20-39%) | 1 (1=0-19%) | 1 (1=0-19%) | 5 (5=80-100%) | 4 (4=60-79%) | 1 (1=0-19%) | 2 (2=20-39%) | 1 (1=0-19%) | 1 (1=0-19%) | 2 (2=20-39%) |
| CCOc1c(C(=O)Nc2nnnn2C)nn(C)c(=O)c1C [Compound 1.009] | 5 (5=80-100%) | 5 (5=80-100%) | 5 (5=80-100%) | 4 (4=60-79%) | 5 (5=80-100%) | 5 (5=80-100%) | 5 (5=80-100%) | 4 (4=60-79%) | 5 (5=80-100%) | 3 (3=40-59%) | 3 (3=40-59%) | 5 (5=80-100%) |
| Cn1nnnc1NC(=O)c1nn(C)c(=O)c(-c2ccccc2)c1Cl [Compound 1.010] | 5 (5=80-100%) | 5 (5=80-100%) | 4 (4=60-79%) | 4 (4=60-79%) | 5 (5=80-100%) | 5 (5=80-100%) | 5 (5=80-100%) | 5 (5=80-100%) | 1 (1=0-19%) | 5 (5=80-100%) | 5 (5=80-100%) | 5 (5=80-100%) |
| Cn1nnnc1NC(=O)c1nn(C)c(=O)c(-c2ccc(Cl)cc2Cl)c1Cl [Compound 1.011] | 3 (3=40-59%) | 5 (5=80-100%) | 4 (4=60-79%) | 5 (5=80-100%) | 5 (5=80-100%) | 5 (5=80-100%) | 5 (5=80-100%) | 5 (5=80-100%) | 3 (3=40-59%) | 5 (5=80-100%) | 5 (5=80-100%) | 5 (5=80-100%) |
| Cn1nnnc1NC(=O)c1nn(C)c(=O)c(-c2cccc(Cl)c2)c1Cl [Compound 1.012] | 5 (5=80-100%) | 5 (5=80-100%) | 3 (3=40-59%) | 5 (5=80-100%) | 4 (4=60-79%) | 5 (5=80-100%) | 5 (5=80-100%) | 5 (5=80-100%) | 4 (4=60-79%) | 5 (5=80-100%) | 5 (5=80-100%) | 5 (5=80-100%) |
| Cn1nnnc1NC(=O)c1nn(C)c(=O)c(-c2ccc(Cl)cc2)c1Cl [Compound 1.013] | 3 (3=40-59%) | 5 (5=80-100%) | 2 (2=20-39%) | 5 (5=80-100%) | 3 (3=40-59%) | 5 (5=80-100%) | 5 (5=80-100%) | 5 (5=80-100%) | 2 (2=20-39%) | 5 (5=80-100%) | 5 (5=80-100%) | 5 (5=80-100%) |
| Cc1ccc(-c2c(Cl)c(C(=O)Nc3nnnn3C)nn(C)c2=O)cc1 [Compound 1.015] | 5 (5=80-100%) | 5 (5=80-100%) | 3 (3=40-59%) | 5 (5=80-100%) | 5 (5=80-100%) | 5 (5=80-100%) | 5 (5=80-100%) | 5 (5=80-100%) | 2 (2=20-39%) | 5 (5=80-100%) | 5 (5=80-100%) | 5 (5=80-100%) |
| COc1ccc(-c2c(Cl)c(C(=O)Nc3nnnn3C)nn(C)c2=O)cc1 [Compound 1.016] | 5 (5=80-100%) | 5 (5=80-100%) | 4 (4=60-79%) | 5 (5=80-100%) | 5 (5=80-100%) | 5 (5=80-100%) | 5 (5=80-100%) | 5 (5=80-100%) | 1 (1=0-19%) | 5 (5=80-100%) | 5 (5=80-100%) | 5 (5=80-100%) |
| COc1ccc(-c2c(Cl)c(C(=O)Nc3nnnn3C)nn(C)c2=O)cc1OC [Compound 1.017] | 5 (5=80-100%) | 5 (5=80-100%) | 5 (5=80-100%) | 5 (5=80-100%) | 5 (5=80-100%) | 5 (5=80-100%) | 5 (5=80-100%) | 5 (5=80-100%) | 5 (5=80-100%) | 5 (5=80-100%) | 5 (5=80-100%) | 5 (5=80-100%) |
